#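 Cells were grown in 96-well plates and exposed to each compound for 48 hours at five concentrations; endpoints were interpolated linearly between bracketing concentrations, or set to the highest concentration if not reached. Abbreviation: GI50, concentration required for 50% inhibition of growth. TGI: concentration producing complete growth inhibition.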
# Key:
# Assay in all cases: growth of human tumour cells (NCI), 48 h
# [1] = system: HCT-15 colon
# [2] = system: HS 578T breast
# [3] = system: A549 NSCLC
# [4] = system: SF-295 CNS
# [5] = system: COLO 205 colon
# [6] = system: PC-3 prostate
# [7] = system: MDA-MB-435
# [8] = system: DU-145 prostate
# [9] = system: HCC-2998 colon
# [10] = system: OVCAR-3 ovarian
# [11] = system: BT-549 breast
# [12] = system: M14 melanoma
# [13] = system: K-562 leukemia
# [14] = system: SR leukemia
# [15] = system: A498 renal
# [16] = system: OVCAR-5 ovarian
# [17] = system: SF-539 CNS
# [18] = system: HT29 colon
# [19] = system: SK-MEL-28 melanoma
# [20] = system: MDA-MB-231 breast
# [21] = system: 786-0 renal
# [22] = system: SK-OV-3 ovarian
# [23] = system: TK-10 renal
# [24] = system: SNB-19 CNS
# [25] = system: NCI-H522 lung
# [26] = system: SW-620 colon
# [27] = system: NCI-H460 lung
# [28] = system: HOP-92 NSCLC
# [29] = system: SK-MEL-5 melanoma
# [30] = system: UACC-62 melanoma
# [31] = system: MOLT-4 leukemia
# [32] = system: OVCAR-4 ovarian
# [33] = system: NCI-H226 lung
# [34] = system: IGROV1 ovarian
# [35] = system: HCT-116 colon
# [36] = system: RPMI-8226 leukemia
# [37] = system: NCI-H23 lung
# [38] = system: SNB-75 CNS
# [39] = system: OVCAR-8 ovarian
# [40] = system: CCRF-CEM leukemia
# [41] = system: T-47D breast
# [42] = system: UO-31 renal
# [43] = system: U251 CNS
# [44] = system: UACC-257 melanoma
# [45] = system: MCF7 breast
# [46] = system: RXF 393 renal
# [47] = system: EKVX NSCLC
# [48] = system: LOX IMVI melanoma
# [49] = system: ACHN renal
# [50] = system: NCI/ADR-RES ovarian
# [51] = system: HOP-62 NSCLC
# [52] = system: KM12 colon
# [53] = system: CAKI-1 renal
# [54] = system: SN12C renal
# [55] = system: SK-MEL-2 melanoma
# [56] = system: SF-268 CNS
# [57] = system: HL-60(TB) leukemia
smiles,measurement,setting,value
Nc1ccc2c(c1)Cc1cc(Cl)c(Cl)cc1-2,GI50,[1],6.22 µM
same,TGI,[1],> 100 µM
same,GI50,[2],5.79 µM
same,TGI,[2],> 100 µM
same,GI50,[3],7.72 µM
same,TGI,[3],> 100 µM
same,GI50,[4],2.25 µM
same,TGI,[4],7.15 µM
same,GI50,[5],22.2 µM
same,TGI,[5],> 100 µM
same,GI50,[6],> 100 µM
same,TGI,[6],> 100 µM
same,GI50,[7],1.77 µM
same,TGI,[7],4.51 µM
same,GI50,[8],6.24 µM
same,TGI,[8],> 100 µM
same,GI50,[9],9.19 µM
same,TGI,[9],> 100 µM
same,GI50,[10],3.17 µM
same,TGI,[10],87.8 µM
same,GI50,[11],> 100 µM
same,TGI,[11],> 100 µM
same,GI50,[12],3.55 µM
same,TGI,[12],> 100 µM
same,GI50,[13],> 100 µM
same,TGI,[13],> 100 µM
same,GI50,[14],26.9 µM
same,TGI,[14],> 100 µM
same,GI50,[15],4.78 µM
same,TGI,[15],> 100 µM
same,GI50,[16],> 100 µM
same,TGI,[16],> 100 µM
same,GI50,[17],57.3 µM
same,TGI,[17],> 100 µM
same,GI50,[18],> 100 µM
same,TGI,[18],> 100 µM
same,GI50,[19],> 100 µM
same,TGI,[19],> 100 µM
same,GI50,[20],6.39 µM
same,TGI,[20],> 100 µM
same,GI50,[21],> 100 µM
same,TGI,[21],> 100 µM
same,GI50,[22],8.03 µM
same,TGI,[22],> 100 µM
same,GI50,[23],> 100 µM
same,TGI,[23],> 100 µM
same,GI50,[24],5.96 µM
same,TGI,[24],> 100 µM
same,GI50,[25],> 100 µM
same,TGI,[25],> 100 µM
same,GI50,[26],5.43 µM
same,TGI,[26],> 100 µM
same,GI50,[27],5.12 µM
same,TGI,[27],> 100 µM
same,GI50,[28],97.9 µM
same,TGI,[28],> 100 µM
same,GI50,[29],8.17 µM
same,TGI,[29],> 100 µM
same,GI50,[30],12.8 µM
same,TGI,[30],> 100 µM
same,GI50,[31],> 100 µM
same,TGI,[31],> 100 µM
same,GI50,[32],> 100 µM
same,TGI,[32],> 100 µM
same,GI50,[33],> 100 µM
same,TGI,[33],> 100 µM
same,GI50,[34],17.7 µM
same,TGI,[34],> 100 µM
same,GI50,[35],6.81 µM
same,TGI,[35],> 100 µM
same,GI50,[36],57.6 µM
same,TGI,[36],> 100 µM
same,GI50,[37],> 100 µM
same,TGI,[37],> 100 µM
same,GI50,[38],67.8 µM
same,TGI,[38],> 100 µM
same,GI50,[39],> 100 µM
same,TGI,[39],> 100 µM
same,GI50,[40],7.73 µM
same,TGI,[40],> 100 µM
same,GI50,[41],> 100 µM
same,TGI,[41],> 100 µM
same,GI50,[42],6.01 µM
same,TGI,[42],> 100 µM
same,GI50,[43],5.56 µM
same,TGI,[43],> 100 µM
same,GI50,[44],> 100 µM
same,TGI,[44],> 100 µM
same,GI50,[45],0.562 µM
same,TGI,[45],> 100 µM
same,GI50,[46],6.07 µM
same,TGI,[46],> 100 µM
same,GI50,[47],1.94 µM
same,TGI,[47],8.82 µM
same,GI50,[48],65.6 µM
same,TGI,[48],> 100 µM
same,GI50,[49],7.06 µM
same,TGI,[49],> 100 µM
same,GI50,[50],62.2 µM
same,TGI,[50],> 100 µM
same,GI50,[51],> 100 µM
same,TGI,[51],> 100 µM
same,GI50,[52],7.05 µM
same,TGI,[52],> 100 µM
same,GI50,[53],3.76 µM
same,TGI,[53],> 100 µM
same,GI50,[54],11.9 µM
same,TGI,[54],> 100 µM
same,GI50,[55],> 100 µM
same,TGI,[55],> 100 µM
same,GI50,[56],> 100 µM
same,TGI,[56],> 100 µM
same,GI50,[57],55 µM
same,TGI,[57],> 100 µM

# From PubChem BioAssay (NCI)
